Here are results for three compounds from patent US8722849B2, “Polypeptides” (Novo Nordisk A/S, priority 2011, dated 2014).

The nature of series [1]: Assay (IV) determination of solubility. Type of series: physicochemical. In a few lines:
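Stock ~500 nmol/ml in water; 1:1 with 100 mM buffer, pH 3.0–8.0 (glycylglycine ≤5.0, bistrispropane ≥6.0); 18 h RT; spin; HPLC quantitation of soluble polypeptide.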

The target of series [2] is T1, human calcitonin receptor (Homo sapiens, UniProt P30988).
T1 construct: expressed in transfected cells; host or cells: BHK570
T1 sequence (P30988 25-474): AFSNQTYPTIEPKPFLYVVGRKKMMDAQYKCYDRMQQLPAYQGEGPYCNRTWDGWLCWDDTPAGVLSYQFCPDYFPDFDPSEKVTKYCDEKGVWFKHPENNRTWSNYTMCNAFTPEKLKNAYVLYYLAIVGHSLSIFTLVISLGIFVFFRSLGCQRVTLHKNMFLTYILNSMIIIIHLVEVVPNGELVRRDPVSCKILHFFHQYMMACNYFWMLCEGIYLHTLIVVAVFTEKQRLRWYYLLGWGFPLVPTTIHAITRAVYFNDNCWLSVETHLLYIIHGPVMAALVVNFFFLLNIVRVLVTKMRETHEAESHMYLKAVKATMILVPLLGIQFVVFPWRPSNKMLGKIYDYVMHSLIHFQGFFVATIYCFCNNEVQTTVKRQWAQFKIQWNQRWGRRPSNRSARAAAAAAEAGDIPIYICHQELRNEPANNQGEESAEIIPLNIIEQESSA
The experiment in a line: Assay (II)a functional CRE-luciferase assay, human calcitonin receptor. Type of series: cell-based. The settings on record: Table 7; human calcitonin (CTa) receptor.

A short description of series [3]: Assay (III) ThT fibrillation assay for physical stability. The settings on record: ThT fibrillation assay. The class given is physicochemical. In a few lines: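 Freshly prepared formulations, pH-adjusted, with 1 μM ThT; four or eight replicates incubated at 37 °C under 960 rpm orbital shaking. Fluorescence (ex 444/em 485 nm) read every 20 min; […]. Peptide concentration measured by RP-HPLC before and after the run.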

The target of series [4] is T2, human amylin receptor (amylin 3(a) receptor: human calcitonin receptor + RAMP-3) (Homo sapiens, UniProt O60896+P30988).
T2 construct: expressed in transfected cells; host or cells: BHK570
T2 sequence (P30988 25-474): T1 sequence (P30988 25-474)
T2 sequence (O60896 24-148 partner): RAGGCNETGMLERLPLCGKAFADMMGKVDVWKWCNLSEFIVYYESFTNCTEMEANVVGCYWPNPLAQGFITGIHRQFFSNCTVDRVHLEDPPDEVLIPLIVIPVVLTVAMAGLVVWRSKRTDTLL
As to the kind of experiment: Assay (II)a functional CRE-luciferase assay, human amylin receptor. Type of series: cell-based. The settings on record: Table 2; BHK amylin 3(a)-receptor/CRE-luc cells.

Where [5] appears, read: bistrispropane buffer, pH 6, pH 6.0, read-out: Solubility pH 6.0.
Where [6] appears, read: bistrispropane buffer, pH 6.5, pH 6.5, read-out: Solubility pH 6.5.
[7] abbreviates: bistrispropane buffer, pH 7, pH 7.0, read-out: Solubility pH 7.0.
Setting [8] is: bistrispropane buffer, pH 7.5, pH 7.5, read-out: Solubility pH 7.5.
The mark [9] stands for this setting: bistrispropane buffer, pH 8, pH 8.0, read-out: Solubility pH 8.0.
The mark [10] stands for this setting: glycylglycine buffer, pH 3, pH 3.0, read-out: Solubility pH 3.0.
[11] abbreviates: glycylglycine buffer, pH 4, pH 4.0, 18 hours at room temperature, Table 2, read-out: Solubility pH 4.0.
[12] abbreviates: glycylglycine buffer, pH 4, pH 4.0, read-out: Solubility pH 4.0.
[13] abbreviates: glycylglycine buffer, pH 5, pH 5.0, read-out: Solubility pH 5.0.
Setting [14] is: bistrispropane buffer, pH 7, pH 7.0, 18 hours at room temperature, Table 3, read-out: Solubility pH 7.0.

Converted amounts (≈) assume the structure as drawn. Like-named read-outs stand apart in the source and are kept apart here. Starred links: 1 amine or outer side, 2 acyl side, 3 side chain; linkers in the order of their positions; H or OH if unused. Positions of bridges follow the written chain, without caps; N, C: chain ends. Residues, ends and D or L forms follow the SMILES beside them. *: point of attachment. C20 diacid = O=C(O)CCCCCCCCCCCCCCCCCCC(=O)*; γGlu = O=C(O)[C@H](CCC(=O)[*:2])N[*:1]

As usually defined, the solubility is how much of the substance goes into solution per volume. In general, EC50 refers to the concentration needed to bring the measured effect to its halfway point. For `CC[C@H](C)[C@H](NC(=O)[C@@H]1CCCN1C(=O)CNC(=O)[C@H](Cc1ccccc1)NC(=O)[C@H](CC(N)=O)NC(=O)[C@H](CC(N)=O)NC(=O)[C@H](CO)NC(=O)[C@H](CO)NC(=O)[C@H](CCCNC(=N)N)NC(=O)[C@H](Cc1c[nH]cn1)NC(=O)[C@H](CC(C)C)NC(=O)[C@H](Cc1ccccc1)NC(=O)[C@H](CCC(=O)O)NC(=O)[C@H](C)NC(=O)[C@H](CC(C)C)NC(=O)[C@H](CCCNC(=N)N)NC(=O)[C@H](CCC(N)=O)NC(=O)[C@@H](NC(=O)[C@H](C)NC(=O)[C@@H]1CSSC[C@H](NC(=O)[C@H](Cc2c[nH]cn2)NC(=O)CC[C@H](NC(=O)CCCCCCCCCCCCCCCCCCC(=O)O)C(=O)O)C(=O)N[C@@H](CC(N)=O)C(=O)N[C@@H]([C@@H](C)O)C(=O)N[C@@H](C)C(=O)N[C@@H]([C@@H](C)O)C(=O)N1)[C@@H](C)O)C(=O)N[C@@H](CC(C)C)C(=O)N1CCC[C@H]1C(=O)N1CCC[C@H]1C(=O)N[C@H](C(=O)N[C@@H](CC(N)=O)C(=O)N[C@H](C(=O)NCC(=O)N[C@@H](CO)C(=O)N[C@@H](Cc1c[nH]cn1)C(=O)N[C@H](C(=O)N[C@@H](Cc1ccc(O)cc1)C(N)=O)[C@@H](C)O)C(C)C)[C@@H](C)O` [Example 77, N-alpha-[(S)-4-Carboxy-4-(19-carboxynonadecanoylamino)butyryl]-[His1,Glu14,His17,Arg18,His35]-pramlintide] ({C20 diacid-γGlu}-HCNTATCATQRLAEFLHRSSNNFGPILPPTNVGSHTY-NH2; disulfide 2-7 (inferred); C-terminus assumed), the solubility at 18 h is 185 µM (≈ 834 µg/mL) in series [1] (setting [5]); 23 µM (≈ 104 µg/mL) in series [1] (setting [6]); 5 µM (≈ 22.5 µg/mL) in series [1] (setting [7]); 33 µM (≈ 149 µg/mL) in series [1] (setting [8]); 94 µM (≈ 424 µg/mL) in series [1] (setting [9]); more than 200 µM in series [1] (setting [10]). Also, the solubility at 18 h in series [1] (setting [11]), in series [1] (setting [12]) and in series [1] (setting [13]) was more than 200 µM throughout. For the same compound, the EC50 in series [2] turned out to be 110 pM; in series [4] it was 66 pM. The “ThT pH 4.0 lag time” value in series [3] was more than 45 h. Moreover, the “ThT pH 4.0 lag time (h)” value in series [3] is reported as more than 45 h.

`CC[C@H](C)[C@H](NC(=O)[C@@H]1CCCN1C(=O)CNC(=O)[C@H](Cc1ccccc1)NC(=O)[C@H](CC(N)=O)NC(=O)[C@H](CC(N)=O)NC(=O)[C@H](CO)NC(=O)[C@H](CO)NC(=O)[C@H](CCCNC(=N)N)NC(=O)[C@H](Cc1c[nH]cn1)NC(=O)[C@H](CC(C)C)NC(=O)[C@H](Cc1ccccc1)NC(=O)[C@H](CCC(=O)O)NC(=O)[C@H](C)NC(=O)[C@H](CC(C)C)NC(=O)[C@H](CCCNC(=N)N)NC(=O)[C@H](CCC(N)=O)NC(=O)[C@@H](NC(=O)[C@H](C)NC(=O)[C@@H]1CSSC[C@H](NC(=O)[C@H](CCCCN)NC(=O)CC[C@H](NC(=O)CCCCCCCCCCCCCCCCCCC(=O)O)C(=O)O)C(=O)N[C@@H](CC(N)=O)C(=O)N[C@@H]([C@@H](C)O)C(=O)N[C@@H](C)C(=O)N[C@@H]([C@@H](C)O)C(=O)N1)[C@@H](C)O)C(=O)N[C@@H](CC(C)C)C(=O)N1CCC[C@H]1C(=O)N1CCC[C@H]1C(=O)N[C@H](C(=O)N[C@@H](CC(N)=O)C(=O)N[C@H](C(=O)NCC(=O)N[C@@H](CO)C(=O)N[C@@H](Cc1c[nH]cn1)C(=O)N[C@H](C(=O)N[C@@H](Cc1ccc(O)cc1)C(N)=O)[C@@H](C)O)C(C)C)[C@@H](C)O` [Example 78, N-alpha-[(S)-4-Carboxy-4-(19-carboxynonadecanoylamino)butyryl]-[Glu14,His17,Arg18,His35]-pramlintide] ({C20 diacid-γGlu}-KCNTATCATQRLAEFLHRSSNNFGPILPPTNVGSHTY-NH2; disulfide 2-7 (inferred); C-terminus assumed): the solubility at 18 h in series [1] (setting [5]) was more than 200 µM; in series [1] (setting [6]), more than 200 µM; in series [1] (setting [14]) it was 122 µM (≈ 549 µg/mL); in series [1] (setting [7]), 122 µM (≈ 549 µg/mL); in series [1] (setting [8]), 92 µM (≈ 414 µg/mL); in series [1] (setting [9]) it was 79 µM (≈ 355 µg/mL). Moreover, the solubility at 18 h in series [1] (setting [10]), in series [1] (setting [11]), in series [1] (setting [12]) and in series [1] (setting [13]) was more than 200 µM throughout. For the same compound, the EC50 in series [2] is 96.5 pM; in series [4], 68.5 pM. Besides, the “ThT pH 4.0 lag time” value in series [3] was more than 45 h. Further, the “ThT pH 4.0 lag time (h)” value in series [3] was more than 45 h.

Take `CC[C@H](C)[C@H](NC(=O)[C@@H]1CCCN1C(=O)CNC(=O)[C@H](Cc1ccccc1)NC(=O)[C@H](CC(N)=O)NC(=O)[C@H](CC(N)=O)NC(=O)[C@H](CO)NC(=O)[C@H](CO)NC(=O)[C@H](CCCNC(=N)N)NC(=O)[C@H](Cc1c[nH]cn1)NC(=O)[C@H](CC(C)C)NC(=O)[C@H](Cc1ccccc1)NC(=O)[C@H](CCC(=O)O)NC(=O)[C@H](C)NC(=O)[C@H](CC(C)C)NC(=O)[C@H](CCCNC(=N)N)NC(=O)[C@H](CCC(N)=O)NC(=O)[C@@H](NC(=O)[C@H](C)NC(=O)[C@@H]1CSSC[C@H](NC(=O)[C@H](CCCCN)NC(=O)CC[C@H](NC(=O)CCCCCCCCCCCCCCCCCCC(=O)O)C(=O)O)C(=O)N[C@@H](CC(N)=O)C(=O)N[C@@H]([C@@H](C)O)C(=O)N[C@@H](C)C(=O)N[C@@H]([C@@H](C)O)C(=O)N1)[C@@H](C)O)C(=O)N[C@@H](CC(C)C)C(=O)N1CCC[C@H]1C(=O)N1CCC[C@H]1C(=O)N[C@H](C(=O)N[C@@H](CC(N)=O)C(=O)N[C@H](C(=O)NCC(=O)N[C@@H](CO)C(=O)N[C@@H](CC(N)=O)C(=O)N[C@H](C(=O)N[C@@H](Cc1ccc(O)cc1)C(N)=O)[C@@H](C)O)C(C)C)[C@@H](C)O` [Example 79, N-alpha-[(S)-4-Carboxy-4-(19-carboxynonadecanoylamino)butyryl]-[Glu14,His17,Arg18]-pramlintide] ({C20 diacid-γGlu}-KCNTATCATQRLAEFLHRSSNNFGPILPPTNVGSNTY-NH2; disulfide 2-7 (inferred)): the solubility at 18 h in series [1] (setting [5]), in series [1] (setting [6]), in series [1] (setting [14]), in series [1] (setting [7]), in series [1] (setting [8]) and in series [1] (setting [9]) was more than 200 µM in each case. For the same compound, the solubility at 18 h in series [1] (setting [10]), in series [1] (setting [11]), in series [1] (setting [12]) and in series [1] (setting [13]) was more than 200 µM throughout. Further, the EC50 in series [2] was determined as 77 pM; in series [4] it was 56.5 pM. Further, in series [3], the “ThT pH 4.0 lag time (h)” value was determined as 16 h.
